Assay results reported in ChEMBL document CHEMBL3885861, “Open TG-GATES”.

Organism: Rattus norvegicus
Test: Open TG-GATES - Regimen: Single
Type: toxicity, organism-based, Sprague-Dawley
Set-up: regimen Single, gender Male, age 6 weeks
Conditions: in vivo, po, 100 mg/kg, route gavage, dose level Low; for APTT / Bas / Eos / Fbg / Hb / Ht / Lym / MCH / MCHC / MCV / Mono / Neu / PT / Plat / RBC / Ret / WBC: tissue Blood; for KIDNEY_L / KIDNEY_R / KIDNEY_TOTAL: tissue Kidney; for LIVER: tissue Liver; for A/G / ALP / ALT / AST / BUN / CRE / Ca / Cl / DBIL / GLC / IP / K / LDH / Na / PL / RALB / TBIL / TC / TG / TP / gamma-GTP: tissue Plasma

SMILES: CC(S)C(=O)NCC(=O)O (configuration not stated) [TIOPRONIN]
- TERMINAL_BW (3 h): 208 g
- APTT (3 h): 22.4 s
- Bas (3 h): 0%
- Eos (3 h): 0.6%
- Fbg (3 h): 295.6 mg/dL
- Hb (3 h): 13 g/dL
- Ht (3 h): 39.9%
- Lym (3 h): 79.2%
- MCH (3 h): 20 pg
- MCHC (3 h): 32.6%
- MCV (3 h): 61.6 fL
- Mono (3 h): 2.4%
- Neu (3 h): 16.8%
- PT (3 h): 16.5 s
- Plat (3 h): 113.3 x10_4/uL
- RBC (3 h): 649.2 x10_4/ul
- Ret (3 h): 7.6%
- WBC (3 h): 73.6 x10_2/uL
- KIDNEY_L (3 h): 0.9 g
- KIDNEY_R (3 h): 0.9 g
- KIDNEY_TOTAL (3 h): 1.8 g
- LIVER (3 h): 9 g
- A/G (3 h): 1.2
- ALP (3 h): 1568.4 IU/L
- ALT (3 h): 48.2 IU/L
- AST (3 h): 75.8 IU/L
- BUN (3 h): 10.2 mg/dL
- CRE (3 h): 0.1 mg/dL
- Ca (3 h): 10.7 mg/dL
- Cl (3 h): 106.8 meq/L
- DBIL (3 h): 0 mg/dL
- GLC (3 h): 185.6 mg/dL
- IP (3 h): 8.6 mg/dL
- K (3 h): 4.1 meq/L
- LDH (3 h): 172.8 IU/L
- Na (3 h): 142.8 meq/L
- PL (3 h): 117.6 mg/dL
- RALB (3 h): 2.9 g/dL
- TBIL (3 h): 0.02 mg/dL
- TC (3 h): 68.6 mg/dL
- TG (3 h): 49.6 mg/dL
- TP (3 h): 5.4 g/dL
- gamma-GTP (3 h): 1.8 IU/L
- TERMINAL_BW (6 h): 205.7 g
- APTT (6 h): 22.4 s
- Bas (6 h): 0%
- Eos (6 h): 1%
- Fbg (6 h): 301.8 mg/dL
- Hb (6 h): 12.9 g/dL
- Ht (6 h): 39.5%
- Lym (6 h): 75.8%
- MCH (6 h): 20.1 pg
- MCHC (6 h): 32.6%
- MCV (6 h): 61.6 fL
- Mono (6 h): 2.6%
- Neu (6 h): 20.2%
- PT (6 h): 16 s
- Plat (6 h): 118.6 x10_4/uL
- RBC (6 h): 641.6 x10_4/ul
- Ret (6 h): 7.7%
- WBC (6 h): 93.1 x10_2/uL
- KIDNEY_L (6 h): 0.9 g
- KIDNEY_R (6 h): 0.9 g
- KIDNEY_TOTAL (6 h): 1.9 g
- LIVER (6 h): 8.8 g
- A/G (6 h): 1.2
- ALP (6 h): 1456.8 IU/L
- ALT (6 h): 39.6 IU/L
- AST (6 h): 70.8 IU/L
- BUN (6 h): 8.4 mg/dL
- CRE (6 h): 0.1 mg/dL
- Ca (6 h): 10.6 mg/dL
- Cl (6 h): 105.8 meq/L
- DBIL (6 h): 0 mg/dL
- GLC (6 h): 185.2 mg/dL
- IP (6 h): 9.8 mg/dL
- K (6 h): 4.3 meq/L
- LDH (6 h): 154.6 IU/L
- Na (6 h): 144 meq/L
- PL (6 h): 125.6 mg/dL
- RALB (6 h): 2.9 g/dL
- TBIL (6 h): 0.018 mg/dL
- TC (6 h): 76.4 mg/dL
- TG (6 h): 50.8 mg/dL
- TP (6 h): 5.4 g/dL
- gamma-GTP (6 h): 2 IU/L
- TERMINAL_BW (9 h): 205.8 g
- APTT (9 h): 22.6 s
- Bas (9 h): 0%
- Eos (9 h): 0.2%
- Fbg (9 h): 291.8 mg/dL
- Hb (9 h): 12.5 g/dL
- Ht (9 h): 39.1%
- Lym (9 h): 80.6%
- MCH (9 h): 20.4 pg
- MCHC (9 h): 32%
- MCV (9 h): 63.7 fL
- Mono (9 h): 1.8%
- Neu (9 h): 16.2%
- PT (9 h): 16.4 s
- Plat (9 h): 114 x10_4/uL
- RBC (9 h): 614.2 x10_4/ul
- Ret (9 h): 8.3%
- WBC (9 h): 72.6 x10_2/uL
- KIDNEY_L (9 h): 0.9 g
- KIDNEY_R (9 h): 0.9 g
- KIDNEY_TOTAL (9 h): 1.8 g
- LIVER (9 h): 8.5 g
- A/G (9 h): 1.1
- ALP (9 h): 1275.6 IU/L
- ALT (9 h): 39.2 IU/L
- AST (9 h): 70.2 IU/L
- BUN (9 h): 12.8 mg/dL
- CRE (9 h): 0.1 mg/dL
- Ca (9 h): 10.6 mg/dL
- Cl (9 h): 106.4 meq/L
- DBIL (9 h): 0.002 mg/dL
- GLC (9 h): 190.2 mg/dL
- IP (9 h): 9.5 mg/dL
- K (9 h): 4.2 meq/L
- LDH (9 h): 142.8 IU/L
- Na (9 h): 143.8 meq/L
- PL (9 h): 119.6 mg/dL
- RALB (9 h): 2.8 g/dL
- TBIL (9 h): 0.01 mg/dL
- TC (9 h): 68.8 mg/dL
- TG (9 h): 48.4 mg/dL
- TP (9 h): 5.4 g/dL
- gamma-GTP (9 h): 1.2 IU/L
- TERMINAL_BW (24 h): 222 g
- APTT (24 h): 20.5 s
- Bas (24 h): 0%
- Eos (24 h): 0.8%
- Fbg (24 h): 302.2 mg/dL
- Hb (24 h): 12.9 g/dL
- Ht (24 h): 38.6%
- Lym (24 h): 81.8%
- MCH (24 h): 20.5 pg
- MCHC (24 h): 33.3%
- MCV (24 h): 61.6 fL
- Mono (24 h): 2.6%
- Neu (24 h): 13.8%
- PT (24 h): 16.3 s
- Plat (24 h): 111.9 x10_4/uL
- RBC (24 h): 627.6 x10_4/ul
- Ret (24 h): 7.4%
- WBC (24 h): 75.5 x10_2/uL
- KIDNEY_L (24 h): 1 g
- KIDNEY_R (24 h): 1 g
- KIDNEY_TOTAL (24 h): 1.9 g
- LIVER (24 h): 9.6 g
- A/G (24 h): 1.2
- ALP (24 h): 1761 IU/L
- ALT (24 h): 45.6 IU/L
- AST (24 h): 76.8 IU/L
- BUN (24 h): 15.2 mg/dL
- CRE (24 h): 0.1 mg/dL
- Ca (24 h): 10.8 mg/dL
- Cl (24 h): 106.2 meq/L
- DBIL (24 h): 0 mg/dL
- GLC (24 h): 184.8 mg/dL
- IP (24 h): 7.4 mg/dL
- K (24 h): 4.4 meq/L
- LDH (24 h): 166 IU/L
- Na (24 h): 144.4 meq/L
- PL (24 h): 144 mg/dL
- RALB (24 h): 3 g/dL
- TBIL (24 h): 0.01 mg/dL
- TC (24 h): 82.4 mg/dL
- TG (24 h): 93 mg/dL
- TP (24 h): 5.6 g/dL
- gamma-GTP (24 h): 1.2 IU/L
